Literature values in PMC2912428 (Bioconjugate chemistry, 2010).

Test system: SAv-Y43A
Conditions: SAv-Y43A vs WT SAv ref 21

## O=C(O)CCCC[C@@H]1SC[C@@H]2NC(=O)N[C@@H]21 [biotin, D-biotin]
  lower affinity of SAv-Y43A than wild-type SAv: 67 fold
